Data reported in PubChem BioAssay AID179 (DTP/NCI, 2004).
Active and inactive are the calls of the source.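 How the source made its calls: active means compounds giving half or more protection of infected cells from virus-caused growth loss, again on retest; inactive means the rest.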 Where a SMILES comes first, the peptide text is derived from it. Side-chain parts run from the residue outwards. The star is where a group is joined. Cbz = O=C(OCc1ccccc1)*; Boc = CC(C)(C)OC(=O)*; OBn = c1ccc(CO*)cc1

System: CEM cells HIV-1 protection, formazan growth assay
Experiment: NCI AIDS Antiviral Assay
Conditions: for IC50: measured here: growth of uninfected CEM cells
In short: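 Soluble formazan readout of cell growth; CEM cells ± HIV-1; 5 drug concs. ≥50% protection → retest; ≥50% again = moderately active; reproducible 100% = confirmed active.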

SMILES | outcome | EC50 | IC50
CCOc1cc[n+](C(=C=[N-])C#N)cc1 | inactive | – | –
CC(=O)C(=CC=C(c1ccc(N(C)C)cc1)c1ccc(N(C)C)cc1)C(C)=O | – | > 5.37 µM | 3.24 µM
CCOC(OCC)/C(C)=N/[N+](C)(C)C | – | > 200 µM | > 200 µM
COC(=O)C(=O)/C=C(/O)c1ccc(OC)cc1 | – | > 200 µM | > 200 µM
CC1CN(Cc2ccccc2)C(=N)S1 (configuration not stated) | – | > 363 µM | 288 µM
COc1cc2c(cc1OCCCCN1C(=O)c3cccc4cccc(c34)C1=O)N=C[C@@H]1CCCN1C2=O | – | > 200 µM | 3.47 µM
Cc1cn(C2CC(N=[N+]=[N-])C(COP(=O)(OCC(=O)c3ccccc3)OCC(=O)c3ccccc3)O2)c(=O)[nH]c1=O (configuration not stated) | – | 0.00741 µM | 2 µM
COCCCCCCCCCCCC(=O)O | – | > 200 µM | > 200 µM
C1CN(P(N2CCOCC2)N2CCOCC2)CCO1 | – | > 871 µM | > 871 µM
CCOC(=O)/C(=C\c1ccc(N(C)C)cc1)[Se]c1ccccc1 | – | > 69.2 µM | > 69.2 µM
O=c1ccn(C2OC(CN(O)CCC3C(CO)OC(n4ccc(=O)[nH]c4=O)C3O)C(O)C2O)c(=O)[nH]1 (configuration not stated) | – | > 200 µM | 126 µM
CC(=O)Nc1ccc(C2=N/C(=C\c3ccc(Cl)cc3)C(=O)O2)cc1 | – | > 11 µM | > 11 µM
Cc1c(C)n(-c2ccccc2)c2nc(S(C)(=O)=O)nc(S(C)(=O)=O)c12 | – | > 200 µM | 0.288 µM
O=C(CCCl)N1CCN(C(=O)CCCl)c2c1c1ccccc1c1ccccc21 | – | > 200 µM | 3.02 µM
O=c1c2ccccc2nc(-c2ccccc2)n1NC(=S)Nc1ccc(Cl)cc1 | – | > 123 µM | 107 µM
CC(=O)N(O)Cc1ccccc1 | – | > 1510 µM | 692 µM
Cn1c2ccccc2c(=O)c2[nH]c3ccccc3c21 | – | > 200 µM | 36.3 µM
COC(=O)C1(Cc2ccccc2C)Cc2ccc(C)cc2C1=O (configuration not stated) | – | > 200 µM | 57.5 µM
CC(=O)OCCCCCn1cnc(C(N)=O)c1N | – | > 200 µM | > 200 µM
COc1c(O)c2c(c(O)c1C(C)C)C(=O)C(O)=C1C(C)(C)CCC[C@@]12C | – | > 120 µM | 16.2 µM
CCCCCCCCCCCCCCCCCC(=O)OCC(COC1OC(COS(=O)(=O)O)C(O)C(O)C1O)OC(=O)CCCCCCCCCCCCCCCCC (configuration not stated) | inactive | – | –

SMILES | outcome | EC50 | IC50
Cc1ccccc1C(=O)NC(O)(C(F)(F)F)C(F)(F)F | inactive | – | –
C=C1C(=O)OC2CC1(C)OCC2[C@H]1CCC2C3CC=C4CC=CC(=O)[C@]4(C)C3CC[C@@]21C (some centres not stated) | – | > 155 µM | 3.31 µM
Clc1ccc(-c2nc3ccc(C45CC6CC(CC(C6)C4)C5)cc3[nH]2)cc1 | – | > 100 µM | > 100 µM
C#CC1(O)CCC2[C@@H]3CCc4cc(Oc5nc(F)nc(-c6c7ccccc7c(SCC)n6CCC)n5)ccc4C3CC[C@@]21C (some centres not stated) | – | > 6.17 µM | > 6.17 µM
O=[N+]([O-])c1c(O)c2nonc2c2nn(-c3ccccc3)nc12 | – | > 200 µM | 120 µM
COc1cc([C@@H]2OC(=O)C3C2C(=O)O[C@H]3c2ccc(O)c(OC)c2)ccc1O (some centres not stated) | inactive | – | –
O=C1c2ccccc2C(=CC=C2c3ccccc3Sc3ccccc32)c2ccccc21 | – | > 9.12 µM | > 9.12 µM
Cc1oc2cc(O)ccc2c(=O)c1-c1ccccc1 | – | > 200 µM | 30.2 µM
CCCNC(=O)N(CC(C)(C)C)S(=O)(=O)c1ccc(Cl)cc1 | inactive | – | –
CN1C(N)=NC(=O)/C1=C/c1ccccc1 | – | > 200 µM | 115 µM
CC(=O)c1cccc2c1CC1(C2)Cc2ccc3c(c2C1=O)CCC3 (configuration not stated) | – | > 200 µM | > 200 µM
COC1OC2COc3ccccc3OC2C(NC(N)=S)C1OC (configuration not stated) | – | > 132 µM | 41.7 µM
Clc1ccc(OCCSCCCCCCCCCCSCCOc2ccc(Cl)cc2)cc1 | – | > 7.24 µM | > 7.24 µM
O=C1SC(c2ccccc2)(c2ccccc2)c2cscc21 | – | > 61.7 µM | > 61.7 µM
CC(C)C1CC(CO)(CNc2cc(Cl)nc(N)n2)C1 (configuration not stated) | – | > 20 µM | 19.5 µM
O=[N+]([O-])c1ccccc1OCCOc1ccccc1[N+](=O)[O-] | – | > 200 µM | > 200 µM
Cc1ccc2cccc(-c3cccc4ccccc34)c2n1 | – | > 200 µM | 10.5 µM
O=C(NNC(=S)Nc1ccccc1)c1csc(NC(=S)NC2CCCCC2)n1 | – | 6.92 µM | 7.41 µM
CCCCCCCCCCCCCCCC(=O)OCCOCCOCCOCCOCCOC(=O)CCCCCCCCCCCCCCC | inactive | – | –
COC1=CC(=O)c2c(O)c3c(c(O)c2C1=O)C=C(C)OC3O (configuration not stated) | inactive | – | –
OC1NC2CC3NC(O)C(O)NC3CC2NC1O (configuration not stated) | – | > 100 µM | > 100 µM

SMILES | outcome | EC50 | IC50
CC(O)C1OC(n2cnc3c(=O)[nH]cnc32)C(O)C1O (configuration not stated) | – | > 891 µM | > 891 µM
Cc1cc(C)nc(NS(=O)(=O)c2ccc(NCN3C(=O)c4ccccc4C3=O)cc2)n1 | – | > 200 µM | 110 µM
COc1cc(C2c3cc4c(cc3OC(N3CCOCC3)C2C)OCO4)cc(OC)c1OC (configuration not stated) | – | > 200 µM | 1.86 µM
O=[N+]([O-])/C(C(Cl)=C(Cl)Cl)=C(/Br)SCc1ccccc1 | – | > 20 µM | 0.575 µM
C#CC1OC(C)(C)OC1C1OC(C)(C)OCC1O (configuration not stated) | inactive | – | –
CCOC(=O)N1C=NC23C(c4ccccc4)C(c4ccccc4)C12C(=O)N(C)C(=O)N3C (configuration not stated) | – | > 22.9 µM | > 22.9 µM
Nc1nc(N)c(CCCCc2ccccc2)c(N)n1 | inactive | – | –
O=C(Nc1ccc(O)c(C(=O)O)c1)c1ccccc1 | – | > 200 µM | > 200 µM
COc1cc(C(=O)C/C(CCC(=O)Nc2ccc(Cl)cc2Cl)=N/Nc2nnc(C)n2N)ccc1O | – | > 50.1 µM | > 50.1 µM
CC(C)(C)OC(=O)NC(CCCCNC(=O)CNC(=O)OCc1ccccc1)C(=O)NC(CCCCNC(=O)CNC(=O)OCc1ccccc1)C(=O)NC(CCCCNC(=O)CNC(=O)OCc1ccccc1)C(=O)NC(CCCCNC(=O)CNC(=O)OCc1ccccc1)C(=O)O (configuration not stated) (Boc-K([Gly-Cbz])K([Gly-Cbz])K([Gly-Cbz])K([Gly-Cbz])-OH; configuration not given here) | – | 72.4 µM | > 100 µM
N#CC(NNC(=O)c1ccccc1O)c1ccc(O)cc1 (configuration not stated) | – | > 331 µM | 1.95 µM
O=c1[nH]c(Nc2cccc(CO)c2)nc2nc[nH]c12 | – | > 200 µM | > 200 µM
CCOC(=O)C1=C(C)N(NC(=O)c2ccccc2)C2(O)CCCC12C(=O)OCC (configuration not stated) | – | > 447 µM | 245 µM
CC1(C)C(=NN=C(N)N)C(C)(C)C1=NN=C(N)N | – | > 50.1 µM | > 50.1 µM
Cc1cc(=O)n2cn[nH]c2n1 | – | > 200 µM | > 200 µM
O=C(NNC(=S)Nc1cccc(Cl)c1)c1cc(-c2ccccc2)nc2ccccc12 | – | > 200 µM | 12 µM
O=c1c2ccccc2n2nnc3ccc(NCCCNCCNCCCNc4ccc5nnn6c7ccccc7c(=O)c4c56)c1c32 | – | > 0.0501 µM | 0.0347 µM
O=S1(=O)CC(c2ccccc2)=NN=C(c2ccccc2)C1 | – | > 61.7 µM | > 61.7 µM
CCSC1=N/C(=C\c2ccco2)C(Nc2ccc(C)cc2)=N1 | – | > 50.1 µM | > 50.1 µM
C=C(C)CCC1C=[N+]([O-])OC(C)(C)C1(C)C (configuration not stated) | – | > 200 µM | 107 µM
COC1C(O)C(C)OC(OC2C(Oc3cccc4c(O)c5c(=O)oc6ccc(C)c7c(=O)oc(c34)c5c67)OC(C)C3O[C@H](c4ccccc4)OC32)C1O (some centres not stated) | – | > 7.24 µM | 0.0912 µM

SMILES | outcome | EC50 | IC50
CC(NC(=O)C(C)NC(=O)C(CC(N)=O)NC(=O)CN)C(=O)NC(CO)C(=O)NC(C)C(=O)NC(CCCN=C(N)N)C(N)=O (configuration not stated) (H-GNAASAR-NH2; configuration not given here) | inactive | – | –
S=C1C(=Nc2ccccc2)N(c2ccccc2)/C(=N\c2ccccn2)N1c1ccccc1 | – | > 200 µM | 6.31 µM
ON/N=C/c1cc2c(cc1Br)OCO2 | – | > 263 µM | 186 µM
Cc1cc2cc3ccc(Cl)nn3c2nn1 | – | > 200 µM | > 200 µM
NC(N)=NCCCC(N=c1c2ccccc2n(O)c2ccccc12)C(=O)O (configuration not stated) | inactive | – | –
CC(NC(=O)OC(C)(C)C)C(=O)NC(Cc1ccccc1)C(=O)NCC(=O)O (stereo not drawn) (Boc-Ala-Phe-Gly-OH; configuration not given here) | – | > 200 µM | > 200 µM
Oc1ccc(N=C2CCC(=C(c3ccccc3)c3ccc(Nc4ccc(O)cc4)cc3)CC2)cc1 | – | > 200 µM | 20.9 µM
C[n+]1ccc(-c2nc(-c3cc[n+](C)cc3)nc(-c3cc[n+](C)cc3)n2)cc1 | – | > 200 µM | 77.6 µM
CC1(C)C2C=CC1(C)C1(CC2)OCCO1 (configuration not stated) | – | > 200 µM | > 200 µM
N#CCCN(CCC#N)c1ccc(/C=C2\N=C(c3cc([N+](=O)[O-])ccc3Cl)OC2=O)cc1 | – | > 2.34 µM | 0.575 µM
C(=C\c1ccccc1)/C[P+](c1ccccc1)(c1ccccc1)c1ccccc1 | – | > 200 µM | 0.525 µM
CC(NC(=O)C(Cc1ccccc1)NC(=O)C(Cc1ccccc1)NC(=O)OC(C)(C)C)C(=O)OCc1ccccc1 (stereo not drawn) (Boc-Phe-Phe-Ala-OBn; configuration not given here) | – | > 200 µM | 60.3 µM
O=C1CNc2cc(N3CCN(c4cccc(C(F)(F)F)c4)CC3)ccc2N1 | – | > 200 µM | 75.9 µM
Nc1ccc2nc3n(c2c1)C(c1c(F)cccc1F)SC3 (configuration not stated) | – | > 200 µM | 126 µM
C=CCNC(=S)/N=C\C(C(=O)OCC)=C(/O)C(=O)OCC | – | > 200 µM | > 200 µM
COc1cc(CC(=O)O)c([N+](=O)[O-])cc1OC | – | > 1020 µM | 891 µM
COc1ccc(C(=O)c2ccc(OC)c(S(=O)(=O)N(C)C=O)c2)cc1S(=O)(=O)N(C)C=O | – | > 38.9 µM | > 38.9 µM
OCC1CC2c3[nH]c4ccccc4c3CCN2C1 (configuration not stated) | – | > 282 µM | > 282 µM
CCOP12(OCC)NC(=O)OC1(C(F)(F)F)c1ccccc1O2 (configuration not stated) | – | > 141 µM | > 141 µM
CC(=O)OCC1OC(n2c(=O)[nH]c(=O)c3n[nH]nc32)C(OC(C)=O)C(OC(C)=O)C1OC(C)=O (configuration not stated) | – | > 269 µM | > 269 µM
Nc1c(Cl)ncnc1NCCO | – | > 200 µM | > 200 µM
